This note sets out measurements from ChEMBL document CHEMBL1137357, “Further synthetic and biological studies on vitamin D hormone antagonists based on C24-alkylation and C2alpha-functionalization of 25-dehydro-1alpha-hydroxyvitamin D(3)-26,23-lactones” (J Med Chem, 2006).

The target of the experiment is T1, Vitamin D3 receptor (Homo sapiens) (UniProt P11473).
T1 sequence (whole entry): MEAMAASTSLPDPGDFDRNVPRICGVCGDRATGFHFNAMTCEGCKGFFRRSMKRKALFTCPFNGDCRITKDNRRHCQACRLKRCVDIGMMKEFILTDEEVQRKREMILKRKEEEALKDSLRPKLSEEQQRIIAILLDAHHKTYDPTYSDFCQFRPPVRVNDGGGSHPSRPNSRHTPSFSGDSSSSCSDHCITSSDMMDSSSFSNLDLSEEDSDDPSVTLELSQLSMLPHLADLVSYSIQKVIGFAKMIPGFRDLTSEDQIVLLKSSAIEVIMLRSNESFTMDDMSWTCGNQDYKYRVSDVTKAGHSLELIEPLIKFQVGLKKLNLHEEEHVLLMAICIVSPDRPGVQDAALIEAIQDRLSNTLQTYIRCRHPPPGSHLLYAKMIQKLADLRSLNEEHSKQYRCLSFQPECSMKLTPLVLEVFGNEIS
As to the kind of experiment: Antagonist activity against 1-alpha,25-dihydroxy vitamin D3-induced HL60 cell differentiation by NBT reduction method relative to TEI-9647. In kind it is functional, cell-based. Also on record: scale not given: the % may be the effect or the level left. Conditions: HL-60.
On to `C=C1C(=O)O[C@H](C[C@@H](C)[C@H]2CC[C@H]3/C(=C/C=C4/C[C@@H](O)[C@H](C)[C@H](O)C4=C)CCC[C@]23C)[C@@H]1C`, for which the Activity stood at 476%. To `C=C1/C(=C\C=C2/CCC[C@]3(C)[C@@H]([C@H](C)C[C@H]4OC(=O)C(=C)[C@@H]4CC)CC[C@@H]23)C[C@@H](O)C[C@@H]1O` belongs 6%.

The compound `C=C1/C(=C\C=C2/CCC[C@]3(C)[C@@H]([C@H](C)C[C@H]4OC(=O)C(=C)[C@H]4CC(C)C)CC[C@@H]23)C[C@@H](O)[C@H](OCCCO)[C@@H]1O` came in with an Activity of 25%. With `C=C1/C(=C\C=C2/CCC[C@]3(C)[C@@H]([C@H](C)C[C@H]4OC(=O)C(=C)[C@H]4CC)CC[C@@H]23)C[C@@H](O)[C@H](OCCCO)[C@@H]1O` the figure was 27%. To `C=C1/C(=C\C=C2/CCC[C@]3(C)[C@@H]([C@H](C)C[C@@H]4OC(=O)C(=C)[C@H]4CCC)CC[C@@H]23)C[C@@H](O)[C@H](C)[C@@H]1O` belongs 2030%; to `C=C1C(=O)O[C@@H](C[C@@H](C)[C@H]2CC[C@H]3/C(=C/C=C4/C[C@@H](O)C[C@H](O)C4=C)CCC[C@]23C)[C@@H]1C`, 250%.
